Test results taken from patent publication US20260217720A1, “COMPOSITIONS USEFUL FOR MODULATING SPLICING” (Skyhawk Therapeutics, Inc., priority 2023, published 2026).

Experiments:
[1] = system: ATXN3 transcripts containing exon 4; experiment: ATXN3 Quantitative Splicing Assay (qPCR, E4E5 primers/probe); type: cell-based; settings: Homo sapiens, SK-N-MC cells, 24 h treatment, read-out: ATXN3 Potency - Splicing E4E5 IC50 Mean
Procedure: Human neuroblastoma SK-N-MC cells were plated in 384-well plates at 20,000 cells/well. Twenty-four hours after plating, cells were treated with compounds for 24 h at appropriate concentrations ranging from 30 μM to 0.6 nM (0.3% DMSO). Treated cells were lysed in 15 μL of lysis buffer, and cDNA was synthesized using the Fast Advanced Cells-to-Ct kit. Two μL of each cDNA was used in qPCR reactions to confirm the exon 4 skipped transcripts of ATXN3. A second set of primers/probe E4E5 was used to detect the transcripts containing exon 4. The third set of primers/probe E8E9 was used to detect total gene level of ATXN3. The qPCR reactions were prepared in 384-well plates in 10 μL volume, using TaqMan™ Fast Advanced Master Mix with primers and probes shown in the table below. Reactions were run in a Quant Studio 6 qPCR instrument with default settings.
The primers and probes are listed below in Table 3.

[2] = system: total ATXN3 protein; experiment: ATXN3 Total Protein Assay (MSD); type: cell-based, Human; settings: SK-N-MC cells, 48 hours incubation, read-out: ATXN3 Potency - Protein IC50
Procedure: Human neuroblastoma SK-N-MC cells were seeded at 10,000 cells/well in 384 well plates one day prior to compound treatment. The concentrations of compounds were tested at appropriate doses ranging from 30 μM to 0.6 nM. After incubation for 48 hours, the cells were lysed with 25 μL of lysis buffer containing protease inhibitors, and total ATXN3 protein levels were assessed by Mesoscale Discovery (MSD) assay developed with one pair of anti-ATXN3 antibodies. The capture and detect antibodies were raised in mouse and rabbit respectively. Anti-rabbit MSD-ST antibody was used for secondary antibody.
ATXN3 recombinant protein was used for standards. The readouts were captured with 35 μL of MSD read buffer and multi-array 384-well high binding plates.

IC50 [1]	IC50 [2]	Compound
501 to 5000 nM	–	COC[C@H](N)Cc1cc2c(NCc3cccs3)cc(Cl)nn2c1C [Compound 3, (R)-6-(2-amino-3-methoxypropyl)-2-chloro-7-methyl-N-(thiophen-2-ylmethyl)pyrrolo[1,2-b]pyridazin-4-amine]
101 to 500 nM	–	C[C@H](F)[C@H](N)Cc1cc2c(NCc3cccs3)cc(Cl)nn2c1 [Compound 4, 6-((2R,3S)-2-amino-3-fluorobutyl)-2-chloro-N-(thiophen-2-ylmethyl)pyrrolo[1,2-b]pyridazin-4-amine]
501 to 5000 nM	101 to 500 nM	Cc1c(C[C@@H](N)CF)cc2c(NCc3cccs3)cc(Cl)nn12 [Compound 5, (R)-6-(2-amino-3-fluoropropyl)-2-chloro-7-methyl-N-(thiophen-2-ylmethyl)pyrrolo[1,2-b]pyridazin-4-amine]
101 to 500 nM	101 to 500 nM	Cc1c(C[C@@H](N)[C@H](C)F)cc2c(NCc3cccs3)cc(Cl)nn12 [Compound 6, 6-((2R,3S)-2-amino-3-fluorobutyl)-2-chloro-7-methyl-N-(thiophen-2-ylmethyl)pyrrolo[1,2-b]pyridazin-4-amine]
101 to 500 nM	–	N[C@@H](CF)Cc1cc2c(NCc3cccs3)cc(Cl)nn2c1 [Compound 7, (R)-6-(2-amino-3-fluoropropyl)-2-chloro-N-(thiophen-2-ylmethyl)pyrrolo[1,2-b]pyridazin-4-amine]
0.01 to 100 nM	–	Cc1c(C[C@@H](N)CO)cc2c(NCc3cccs3)cc(Cl)nn12 [Compound 8, (R)-2-amino-3-(2-chloro-7-methyl-4-((thiophen-2-ylmethyl)amino)pyrrolo[1,2-b]pyridazin-6-yl) propan-1-ol]
0.01 to 100 nM	–	N[C@@H](COC(F)F)Cc1cc2c(NCc3cccs3)cc(Cl)nn2c1Cl [Compound 9, (R)-6-(2-amino-3-(difluoromethoxy)propyl)-2,7-dichloro-N-(thiophen-2-ylmethyl)pyrrolo[1,2-b]pyridazin-4-amine]
0.01 to 100 nM	–	N[C@@H](CF)Cc1cc2c(NCc3cccs3)cc(Cl)nn2c1Cl [Compound 10, (R)-6-(2-amino-3-fluoropropyl)-2,7-dichloro-N-(thiophen-2-ylmethyl)pyrrolo[1,2-b]pyridazin-4-amine]
0.01 to 100 nM	–	C[C@H](F)[C@H](N)Cc1cc2c(NCc3cccs3)cc(Cl)nn2c1Cl [Compound 11]

Compound	IC50 [1]	IC50 [2]
Cc1c(C[C@H](C)N)cc2c(NCc3cccs3)cc(Cl)nn12 [Compound 1, (S)-6-(2-aminopropyl)-2-chloro-7-methyl-N-(thiophen-2-ylmethyl)pyrrolo[1,2-b]pyridazin-4-amine]	101 to 500 nM	101 to 500 nM
C[C@H](N)Cc1cc2c(NCc3cccs3)cc(Cl)nn2c1Cl [Compound 2, (S)-6-(2-aminopropyl)-2,7-dichloro-N-(thiophen-2-ylmethyl)pyrrolo[1,2-b]pyridazin-4-amine]	0.01 to 100 nM	–
